Experimental data as given in ChEMBL document CHEMBL5137095, “N-Benzyl Benzamide Derivatives as Selective Sub-Nanomolar Butyrylcholinesterase Inhibitors for Possible Treatment in Advanced Alzheimer's Disease” (J Med Chem, 2022).
Active and inactive are the calls of the source. No cut-off for these calls is given here.

Legend:
PC-12 [1] = assay: Neuroprotective activity against H2O2-induced cell damage in rat PC-12 cells at 5 uM pretreated for 2 hrs followed by H2O2 addition and measured after 24 hrs by MTT assay; type: functional, cell-based
Mus musculus [2] = assay: Cognitive enhancing effect in amyloid beta (1 to 42)-induced ICR mouse model assessed as reduction in escape latency at 0.5 mg/kg, icv measured on day 14 by Morris Water maze method; type: functional, organism-based; settings: time 14.0 day
Mus musculus [3] = assay: Cognitive enhancing effect in amyloid beta (1 to 42)-induced ICR mouse model assessed as decrease in TNF-alpha level in brain at 0.5 to 10, icv measured on day 14 by ELISA; type: functional, organism-based; settings: dose 0.5-10 mg/kg, time 14.0 day
Mus musculus [4] = assay: Cognitive enhancing effect in amyloid beta (1 to 42)-induced ICR mouse model assessed as increase in ACh level in brain at 0.5 to 10, icv measured on day 14 by ELISA; type: functional, organism-based; settings: dose 0.5-10 mg/kg, time 14.0 day
Mus musculus [5] = assay: Cognitive enhancing effect in amyloid beta (1 to 42)-induced ICR mouse model assessed as reduction in amyloid beta (1 to 42) peptide level in brain at 0.5 to 10 mg/kg, icv measured on day 14 by ELISA; type: functional, organism-based; settings: dose 0.5-10 mg/kg
SH-SY5Y [6] = assay: Neuroprotective activity against amyloid beta (1 to 42)-induced cell damage in human SH-SY5Y cells assessed as inhibition of ROS level pretreated for 2 hrs followed by amyloid beta (1 to 42) addition and measured after 24 hrs by DCFH-DA staining based fluorescence microscopy analysis; type: functional; settings: time 26.0 hrs
Mus musculus [7] = assay: Cognitive enhancing effect in amyloid beta (1 to 42)-induced ICR mouse model assessed as decrease in IFN-gamma level in brain at 0.5 to 10, icv measured on day 14 by ELISA; type: functional, organism-based; settings: dose 0.5-10 mg/kg, time 14.0 day
SH-SY5Y [8] = assay: Neuroprotective activity against amyloid beta (1 to 42)-induced cell damage in human SH-SY5Y cells pretreated for 2 hrs followed by amyloid beta (1 to 42) addition and measured after 24 hrs by MTT assay; type: functional, cell-based; settings: dose 0.5-2 µM, time 26.0 hrs, DDE = dose-dependent effect
PC-12 [9] = assay: Neuroprotective activity against H2O2-induced cell damage in rat PC-12 cells pretreated for 2 hrs followed by H2O2 addition and measured after 24 hrs by MTT assay; type: functional, cell-based; settings: dose 2.5-10 µM, time 26.0 hrs, DDE = dose-dependent effect
SH-SY5Y [10] = assay: Neuroprotective activity against GA-induced cell damage in human SH-SY5Y cells pretreated for 2 hrs followed by GA addition and measured after 24 hrs by MTT assay; type: functional, cell-based; settings: dose 0.1-5 µM, time 26.0 hrs, DDE = dose-dependent effect
Mus musculus [11] = assay: Cognitive enhancing effect in amyloid beta (1 to 42)-induced ICR mouse model assessed as reduction in latency at 1 mg/kg, icv measured on day 14 by Morris Water maze method; type: functional, organism-based
Mus musculus [12] = assay: Cognitive enhancing effect in amyloid beta (1 to 42)-induced ICR mouse model assessed as reduction in latency at 2.5 mg/kg, icv measured on day 14 by Morris Water maze method; type: functional, organism-based
Mus musculus [13] = assay: Cognitive enhancing effect in amyloid beta (1 to 42)-induced ICR mouse model assessed as reduction in amyloid beta (1 to 42) peptide level in brain administered via icv measured on day 14 by ELISA; type: functional, organism-based; settings: dose 0.5-10 mg/kg, time 14.0 day, DDE = dose-dependent effect

`CCN(CC)Cc1ccccc1CNC(=O)c1cccc(NC(=O)c2ccc(F)cc2)c1` was tested, and the Activity (PC-12 [1]) was “Active”, the Activity (Mus musculus [2]) was “Active” and the Activity (Mus musculus [3]) was “Active”. The Activity (Mus musculus [4]) was “Active”, the Activity (Mus musculus [5]) was “Active” and the Activity (SH-SY5Y [6]) was “Active”. For the same molecule, the Activity (Mus musculus [7]) was “Active”, the Activity (SH-SY5Y [8]) was “Dde” and the Activity (PC-12 [9]) was “Dde”.

In the case of `CCN(CC)Cc1ccccc1CNC(=O)c1cc(Br)cc(NC(=O)c2ccc(F)cc2)c1`, the Activity (SH-SY5Y [10]) is reported as “Dde”.

In the case of `COc1ccc2c3c1O[C@H]1C[C@@H](O)C=C[C@@]31CCN(C)C2`, the Activity (Mus musculus [11]) is reported as “Active” and the Activity (Mus musculus [12]) is reported as “Active”.

In the case of `CCN(CC)Cc1ccccc1CNC(=O)c1cccc(NC(=O)c2ccc(F)cc2)c1C`, the Activity (SH-SY5Y [6]) is reported as “Active”.

In the case of `CCN(C)C(=O)Oc1cccc([C@H](C)N(C)C)c1`, the Activity (Mus musculus [11]) is reported as “Active” and the Activity (Mus musculus [12]) is reported as “Active”.

`CCN(CC)Cc1ccccc1CNC(=O)c1cc(C)cc(NC(=O)c2ccc(F)cc2)c1` was tested, and the Activity (Mus musculus [2]) was “Active”, the Activity (Mus musculus [3]) was “Active” and the Activity (Mus musculus [4]) was “Active”. For the same molecule, the Activity (SH-SY5Y [6]) was “Active”, the Activity (Mus musculus [13]) was “Dde” and the Activity (Mus musculus [7]) was “Active”.

`CN(C)Cc1ccccc1CNC(=O)c1cccc(NC(=O)c2cccs2)c1` was tested, and the Activity (PC-12 [1]) was “Active”.

`CCCN(CCC)Cc1ccccc1CNC(=O)c1cccc(NC(=O)c2cccs2)c1` was tested, and the Activity (PC-12 [1]) was “Active”.
